Reference: patent US11584709B2, “Multitarget drug for treating diseases in mammals” (“PHARMENTERPRISES EURASIA” LIMITED LIABILITY COMPANY, priority 2017, dated 2023)

Experiments:
[1] = biological target: T1, human recombinant cathepsin S (Homo sapiens, UniProt P25774); test: Effect on the enzymatic activity of cathepsin S; assay type: biochemical; conditions: inhibitor; preincubated 15 minutes at 37° C.; substrate Z-Phe-Arg-AMC (6 μM)
T1 construct: host or cells: E. coli
Protocol: Compound 1 was dissolved in DMSO to a concentration of 100 mM; then a stock solution was serially diluted with DMSO. The maximum starting concentration of the substance is 100 μM. The effect was determined at 5 concentrations of the tested compounds, each concentration was studied twice. A human recombinant cathepsin S, expressed in E. coli was used in the experiment. Test compounds were preincubated for 15 minutes at 37° C. with an enzyme whose activity was determined by the rate of transformation of the substrate Z-Phe-Arg-AMC (6 μM) by the fluorescence spectroscopy (Protein Sci. 1996 April; 5(4):789-91).

[2] = biological target: T2, tachykinin receptor type 1 (NK1R) (Homo sapiens, UniProt P25103); test: Activity of tachykinin receptor type 1 (NK1R), intracellular calcium, U373 cells; assay type: cell-based; conditions: antagonist, [Sar9, Met(O2)11]-SP (1 nM)
T2 construct: endogenous in cells; host or cells: U373 cells
Protocol: Compound 1 dissolved in DMSO to a concentration of 100 mM; then a stock solution was serially diluted with DMSO. The maximum starting concentration of the substance is 100 μM. The effect was determined at 5 concentrations of the tested compounds, each concentration was studied twice. U373 cells expressing NK1R were used in the experiment, said cells, after the preincubation with an [Sar9, Met(O2)11]-SP (1 nM) […], were incubated with Compound 1. The activity of receptors was determined according to the intracellular calcium concentration by the fluorescence spectroscopy (Glia. 1992; 6(2):89-95).

[3] = biological target: T3, tachykinin receptor type 2 (NK2R) (Homo sapiens, UniProt P21452); test: Activity of tachykinin receptor type 2 (NK2R), intracellular calcium, CHO cells; assay type: cell-based; conditions: antagonist, [Nleu10]-NKA-(4-10) (10 nM) agonist
T3 construct: expressed in transfected cells; host or cells: CHO cells
T3 sequence (P21452 1-398): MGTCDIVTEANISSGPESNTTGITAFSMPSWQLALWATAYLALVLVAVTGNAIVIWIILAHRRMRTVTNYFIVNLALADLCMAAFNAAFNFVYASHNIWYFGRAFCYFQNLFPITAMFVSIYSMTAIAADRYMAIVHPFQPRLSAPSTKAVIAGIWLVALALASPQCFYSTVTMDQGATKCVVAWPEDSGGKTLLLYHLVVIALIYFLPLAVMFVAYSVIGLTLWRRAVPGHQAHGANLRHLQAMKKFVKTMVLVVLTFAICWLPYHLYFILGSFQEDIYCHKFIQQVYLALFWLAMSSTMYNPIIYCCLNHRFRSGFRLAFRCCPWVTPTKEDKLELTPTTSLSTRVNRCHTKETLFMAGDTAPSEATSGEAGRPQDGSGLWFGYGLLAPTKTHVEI
Protocol: Compound 1 was dissolved in DMSO to a concentration of 100 mM; then a stock solution was serially diluted with DMSO. The maximum starting concentration of the substance is 100 μM. The effect was determined at 5 concentrations of the tested compounds, each concentration was studied twice. CHO cells expressing NK2R were used in the experiment, said sells, after the preincubation with an [Nleu10]-NKA-(4-10) (10 nM) agonist, were incubated with the test compound. The activity of receptors was determined according to the intracellular calcium concentration by fluorescence spectroscopy (Biochem Biophys Res Commun. 1994 May 16; 200(3):1512-20).

[4] = biological target: T4, prokineticin receptor type 1 (PK1) (Homo sapiens, UniProt Q8TCW9); test: Activity of prokineticin receptors type 1 (PK1), intracellular calcium, HEK-293 cells; assay type: cell-based; conditions: antagonist, PK1 agonist (3 nM)
T4 construct: expressed in transfected cells; host or cells: HEK-293 cells
Protocol: Compound 1 was dissolved in DMSO to a concentration of 100 mM; then a stock solution was serially diluted with DMSO. The maximum starting concentration of the substance is 100 μM. The effect was determined at 5 concentrations of the tested compounds, each concentration was studied twice. HEK-293 cells expressing prokineticin receptors PK1 were used in the experiment, these cells, after preincubation with a PK1 agonist (3 nM), were incubated with the test compound. The activity of receptors was determined according to the intracellular calcium concentration by the fluorescence spectroscopy (Mol Pharmacol. 2005 June; 67(6):2070-6).

[5] = test system: NF-kB signaling pathway; test: Activity of NF-kB signaling pathway, Jurkat lacZ reporter; assay type: cell-based; conditions: Homo sapiens; inhibitor; Jurkat T lymphocytes, β-galactosidase reporter, substrate FDG
[6] = test system: motility of the gastrointestinal tract; test: Model of irritable bowel syndrome: motility of the gastrointestinal tract (activated carbon); assay type: in vivo, nonlinear male mice
Protocol: The effect on the motility of the gastrointestinal tract was studied on a model of irritable bowel syndrome in nonlinear male mice weighing 24-30 g. The animals were intragastrically injected with a solution of activated carbon (50 mg/ml, in a volume of 10 ml/kg) and the speed (in minutes) of the movement of activated coal through the intestines of animals. The compounds under study were intragastrically administered once 1 hour before the introduction of activated carbon. Drotaverine (6.7 mg/kg), Buscopan (3 mg/kg) and Trimedat (33 mg/kg) were used as reference drugs.

[7] = Stability in blood plasma, rabbit; assay type: in vitro ADME; conditions: for Content, % from the initial, Mean (n = 2): rabbit blood plasma, 1 μM, 37° C.
Protocol: Compound 1 at a concentration of 1 μM was incubated for 24 hours in the blood plasma of human and various animal species (rats, mice, guinea pigs, rabbits, horses, dogs, bull, pygmy hogs) at 37° C. Aliquots were taken at time points of 0, 0.25, 1, 2, 4, 8 and 24 hours. In the case of blood plasma of rabbits and monkeys, Compound 1 was incubated for 4 hours, and aliquots were taken at time points 0, 0.25, 1, 4. After the protein precipitation with acetonitrile, samples were analyzed by HPLC-MS/MS to determine the concentration of Compound 1. Verapamil was used as a stable control.

[8] = Pharmacokinetics in blood plasma after oral administration; assay type: in vivo; conditions: rats, 3 mg/kg, 24 hours sampling, HPLC-MS/MS, limit of quantitation 1 ng/ml
Protocol: To confirm low systemic availability of Compound 1, the study pharmacokinetics and bioavailability of Compound 1 after oral administration to rats in a dose of 3 mg/kg was conducted. Sampling of blood from animals was performed at specified time points for 24 hours after the drug administration. The content of Compound 1 in plasma samples was analyzed by HPLC-MS/MS, the limit of quantitation was 1 ng/ml.

T2 sequence (P25103 whole entry): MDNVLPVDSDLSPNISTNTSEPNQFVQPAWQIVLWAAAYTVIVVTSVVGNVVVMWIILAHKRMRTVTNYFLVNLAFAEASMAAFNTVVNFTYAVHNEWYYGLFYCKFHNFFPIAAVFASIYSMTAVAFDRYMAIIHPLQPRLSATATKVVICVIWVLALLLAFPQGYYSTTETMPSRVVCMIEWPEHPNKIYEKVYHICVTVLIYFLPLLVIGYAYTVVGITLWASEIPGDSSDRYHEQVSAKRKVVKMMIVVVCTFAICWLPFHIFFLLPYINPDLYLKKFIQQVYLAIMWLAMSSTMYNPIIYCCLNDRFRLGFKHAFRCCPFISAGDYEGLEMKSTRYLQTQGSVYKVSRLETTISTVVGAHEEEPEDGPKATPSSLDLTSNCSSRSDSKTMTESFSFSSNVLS
T4 sequence (Q8TCW9 whole entry): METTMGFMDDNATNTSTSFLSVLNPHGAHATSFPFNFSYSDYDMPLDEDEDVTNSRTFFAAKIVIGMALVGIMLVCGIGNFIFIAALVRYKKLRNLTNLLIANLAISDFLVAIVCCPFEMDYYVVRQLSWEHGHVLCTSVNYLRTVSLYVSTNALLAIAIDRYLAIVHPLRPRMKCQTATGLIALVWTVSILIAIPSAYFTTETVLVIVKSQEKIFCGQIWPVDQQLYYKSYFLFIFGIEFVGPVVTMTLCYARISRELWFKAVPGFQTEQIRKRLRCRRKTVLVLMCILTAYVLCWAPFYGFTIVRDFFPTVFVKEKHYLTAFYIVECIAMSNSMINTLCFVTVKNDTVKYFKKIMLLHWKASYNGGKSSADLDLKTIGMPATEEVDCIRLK
T1 sequence (P25774 115-331): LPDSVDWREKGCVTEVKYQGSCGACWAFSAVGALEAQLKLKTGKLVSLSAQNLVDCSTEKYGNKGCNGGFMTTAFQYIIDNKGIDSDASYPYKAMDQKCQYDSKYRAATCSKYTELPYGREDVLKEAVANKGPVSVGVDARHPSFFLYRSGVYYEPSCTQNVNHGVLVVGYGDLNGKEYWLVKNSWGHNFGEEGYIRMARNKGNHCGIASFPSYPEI

For `O=C(Cc1ccc(O)cc1)N[C@@H](Cc1ccccc1)C(=O)OCc1ccccc1` [Compound 1, benzyl (2S)-2-[2-(4-hydroxyphenyl)acetamido]-3-phenylpropanoate], the IC50 [1] was 6.7 µM, the IC50 [2] was 4.1 µM and the IC50 [3] was 8.4 µM. For the same compound, the IC50 [4] was 5.7 µM, the IC50 [5] was 9.9 µM and the “The evacuation speed of activated carbon” value ([6]; 0.5 mg/kg once intragastrically 1 hour before activated carbon) was 89.45 ± 1.9 min. The “The evacuation speed of activated carbon” value ([6]; 1.5 mg/kg once intragastrically 1 hour before activated carbon) was 104.25 ± 5.49 min, the “The evacuation speed of activated carbon” value ([6]; 5 mg/kg once intragastrically 1 hour before activated carbon) was 107.67 ± 3.07 min and the “The evacuation speed of activated carbon” value ([6]; 10 mg/kg once intragastrically 1 hour before activated carbon) was 126.6 ± 3.66 min. For the same compound, the “The evacuation speed of activated carbon” value ([6]; 15 mg/kg once intragastrically 1 hour before activated carbon) was 123.13 ± 5.27 min, the “The evacuation speed of activated carbon” value ([6]; 50 mg/kg once intragastrically 1 hour before activated carbon) was 129.13 ± 3.19 min and the “The evacuation speed of activated carbon” value ([6]; 150 mg/kg once intragastrically 1 hour before activated carbon) was 135.63 ± 2.87 min. The “increase of the evacuation time of activated carbon” value ([6]; summary of table 7) was 2 times, the “hydrolysis in the blood plasma (in words)” value ([7]; blood plasma of rabbits, after 15 minutes) was “almost completely hydrolyzed” and the “Content, % from the initial, Mean (n = 2)” value (“Content, % from the initial” below) ([7]; 0 hour) was 100%. The “Content, % from the initial” value ([7]; 0.25 hour) was 0.00%, the “Content, % from the initial” value ([7]; 1 hour) was 0.00% and the “Content, % from the initial” value ([7]; 4 hour) was 0.00%. The “content in blood plasma after oral administration” value [8] was “not detected”.
